Data from ChEMBL document CHEMBL1121869, “Potential inhibitors of L-asparagine biosynthesis. 5. Electrophilic amide analogues of (S)-2,3-diaminopropionic acid” (J Med Chem, 1981).

Key:
[1] = biological target: T1, Asparagine synthetase [glutamine-hydrolyzing] (Rattus norvegicus) (UniProt P49088); test: Inhibition of asparagine synthetase from partially purified rat Novikoff hepatoma at a final concentration of 1 mM
T1 sequence (whole entry): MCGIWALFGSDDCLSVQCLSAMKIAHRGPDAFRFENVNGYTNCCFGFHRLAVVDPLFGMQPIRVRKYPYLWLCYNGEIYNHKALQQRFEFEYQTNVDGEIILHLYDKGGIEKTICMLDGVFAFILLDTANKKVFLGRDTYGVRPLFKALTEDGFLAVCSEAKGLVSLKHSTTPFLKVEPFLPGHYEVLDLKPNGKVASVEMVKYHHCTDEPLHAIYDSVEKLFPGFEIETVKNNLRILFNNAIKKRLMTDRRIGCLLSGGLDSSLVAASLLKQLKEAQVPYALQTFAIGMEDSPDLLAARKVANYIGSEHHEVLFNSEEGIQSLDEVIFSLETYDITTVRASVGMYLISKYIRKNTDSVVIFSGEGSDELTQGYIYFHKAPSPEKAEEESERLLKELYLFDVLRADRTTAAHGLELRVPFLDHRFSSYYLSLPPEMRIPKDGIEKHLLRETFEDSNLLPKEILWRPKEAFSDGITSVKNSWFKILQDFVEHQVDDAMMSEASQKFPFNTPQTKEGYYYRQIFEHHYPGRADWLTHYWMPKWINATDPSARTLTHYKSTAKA

TsH1 [2] = test: Compound was evaluated for the growth inhibition of TsH1 cells in an enriched eagles minimal essential medium, medium lacking aspartic acid and asparagine at a concentration of 0.01 mg/mL (0.03 mM); Medium growth; format: functional, cell-based; details: Cricetulus griseus
TsH1 [3] = test: Compound was evaluated for the growth inhibition of TsH1 cells in an enriched eagles minimal essential medium, medium lacking aspartic acid and asparagine at a concentration of 0.04 mg/mL (0.13 mM); Heavy growth; format: functional, cell-based; details: Cricetulus griseus
TsH1 [4] = test: Compound was evaluated for the growth inhibition of TsH1 cells in an enriched eagles minimal essential medium, medium lacking aspartic acid and asparagine at a concentration of 0.2 mg/mL (0.65 mM); Cells dead; format: functional, cell-based; details: Cricetulus griseus
TsH1 [5] = test: Compound was evaluated for the growth inhibition of TsH1 cells in an enriched eagles minimal essential medium, complete medium at a concentration of 0.01 mg/mL (0.03 mM); Heavy growth; format: functional, cell-based; details: Cricetulus griseus
TsH1 [6] = test: Compound was evaluated for the growth inhibition of TsH1 cells in an enriched eagles minimal essential medium, complete medium at a concentration of 0.04 mg/mL (0.13 mM); Heavy growth; format: functional, cell-based; details: Cricetulus griseus
TsH1 [7] = test: Compound was evaluated for the growth inhibition of TsH1 cells in an enriched eagles minimal essential medium, medium lacking asparagine at a concentration of 1.0 mg/mL (3.27 mM); Cells dead; format: functional, cell-based; details: Cricetulus griseus
TsH1 [8] = test: Compound was evaluated for the growth inhibition of TsH1 cells in an enriched eagles minimal essential medium, medium lacking asparagine at a concentration of 0.01 mg/mL (0.03 mM); Heavy growth; format: functional, cell-based; details: Cricetulus griseus
TsH1 [9] = test: Compound was evaluated for the growth inhibition of TsH1 cells in an enriched eagles minimal essential medium, complete medium at a concentration of 0.2 mg/mL (0.65 mM); Light growth; format: functional, cell-based; details: Cricetulus griseus
TsH1 [10] = test: Compound was evaluated for the growth inhibition of TsH1 cells in an enriched eagles minimal essential medium, medium lacking asparagine at a concentration of 0.04 mg/mL (0.13 mM); Heavy growth; format: functional, cell-based; details: Cricetulus griseus
TsH1 [11] = test: Compound was evaluated for the growth inhibition of TsH1 cells in an enriched eagles minimal essential medium, medium lacking asparagine at a concentration of 0.2 mg/mL (0.65 mM); Cells dead; format: functional, cell-based; details: Cricetulus griseus
TsH1 [12] = test: Compound was evaluated for the growth inhibition of TsH1 cells in an enriched eagles minimal essential medium, medium lacking aspartic acid and asparagine at a concentration of 1.0 mg/mL (3.27 mM); Cells dead; format: functional, cell-based; details: Cricetulus griseus
TsH1 [13] = test: Compound was evaluated for the growth inhibition of TsH1 cells in an enriched eagles minimal essential medium, medium lacking aspartic acid at a concentration of 0.01 mg/mL (0.03 mM); Heavy growth; format: functional, cell-based; details: Cricetulus griseus
TsH1 [14] = test: Compound was evaluated for the growth inhibition of TsH1 cells in an enriched eagles minimal essential medium, medium lacking aspartic acid at a concentration of 0.2 mg/mL (0.65 mM); Light growth; format: functional, cell-based; details: Cricetulus griseus
TsH1 [15] = test: Compound was evaluated for the growth inhibition of TsH1 cells in an enriched eagles minimal essential medium, medium lacking aspartic acid at a concentration of 1.0 mg/mL (3.27 mM); Cells dead; format: functional, cell-based; details: Cricetulus griseus
TsH1 [16] = test: Compound was evaluated for the growth inhibition of TsH1 cells in an enriched eagles minimal essential medium, medium lacking aspartic acid at a concentration of 0.04 mg/mL (0.13 mM); Heavy growth; format: functional, cell-based; details: Cricetulus griseus
TsH1 [17] = test: Compound was evaluated for the growth inhibition of TsH1 cells in an enriched eagles minimal essential medium, complete medium at a concentration of 1.0 mg/mL (3.27 mM); Cells dead; format: functional, cell-based; details: Cricetulus griseus
TsH1 [18] = test: Compound was evaluated for the growth inhibition of TsH1 cells in an enriched eagles minimal essential medium, medium lacking aspartic acid and asparagine at a concentration of 0.04 mg/mL (0.17 mM); Heavy growth; format: functional, cell-based; details: Cricetulus griseus
TsH1 [19] = test: Compound was evaluated for the growth inhibition of TsH1 cells in an enriched eagles minimal essential medium, medium lacking aspartic acid and asparagine at a concentration of 0.2 mg/mL (0.87 mM); Heavy growth; format: functional, cell-based; details: Cricetulus griseus
TsH1 [20] = test: Compound was evaluated for the growth inhibition of TsH1 cells in an enriched […] at a concentration of 0.2 mg/mL (0.87 mM); Heavy growth; format: functional, cell-based; details: Cricetulus griseus
TsH1 [21] = test: Compound was evaluated for the growth inhibition of TsH1 cells in an enriched eagles minimal essential medium, complete medium at a concentration of 0.01 mg/mL (0.01 mM); Heavy growth; format: functional, cell-based; details: Cricetulus griseus
TsH1 [22] = test: Compound was evaluated for the growth inhibition of TsH1 cells in an enriched eagles minimal essential medium, complete medium at a concentration of 0.2 mg/mL (0.87 mM); Heavy growth; format: functional, cell-based; details: Cricetulus griseus
TsH1 [23] = test: Compound was evaluated for the growth inhibition of TsH1 cells in an enriched eagles minimal essential medium, medium lacking asparagine at a concentration of 0.2 mg/mL (0.87 mM); Heavy growth; format: functional, cell-based; details: Cricetulus griseus
TsH1 [24] = test: Compound was evaluated for the growth inhibition of TsH1 cells in an enriched eagles minimal essential medium, medium lacking asparagine at a concentration of 1.0 mg/mL (4.34 mM); Heavy growth; format: functional, cell-based; details: Cricetulus griseus
TsH1 [25] = test: Compound was evaluated for the growth inhibition of TsH1 cells in an enriched eagles minimal essential medium, medium lacking aspartic acid and asparagine at a concentration of 0.01 mg/mL (0.01 mM); Heavy growth; format: functional, cell-based; details: Cricetulus griseus
TsH1 [26] = test: Compound was evaluated for the growth inhibition of TsH1 cells in an enriched eagles minimal essential medium, medium lacking aspartic acid at a concentration of 0.01 mg/mL (0.01 mM); Heavy growth; format: functional, cell-based; details: Cricetulus griseus
TsH1 [27] = test: Compound was evaluated for the growth inhibition of TsH1 cells in an enriched eagles minimal essential medium, medium lacking asparagine at a concentration of 0.01 mg/mL (0.01 mM); Heavy growth; format: functional, cell-based; details: Cricetulus griseus
TsH1 [28] = test: Compound was evaluated for the growth inhibition of TsH1 cells in an enriched eagles minimal essential medium, complete medium at a concentration of 0.04 mg/mL (0.17 mM); Heavy growth; format: functional, cell-based; details: Cricetulus griseus
TsH1 [29] = test: Compound was evaluated for the growth inhibition of TsH1 cells in an enriched eagles minimal essential medium, complete medium at a concentration of 1.0 mg/mL (4.34 mM); Heavy growth; format: functional, cell-based; details: Cricetulus griseus
TsH1 [30] = test: Compound was evaluated for the growth inhibition of TsH1 cells in an enriched eagles minimal essential medium, medium lacking asparagine at a concentration of 0.04 mg/mL (0.17 mM); Heavy growth; format: functional, cell-based; details: Cricetulus griseus
TsH1 [31] = test: Compound was evaluated for the growth inhibition of TsH1 cells in an enriched eagles minimal essential medium, medium lacking aspartic acid and asparagine at a concentration of 1.0 mg/mL (4.34 mM); Heavy growth; format: functional, cell-based; details: Cricetulus griseus
TsH1 [32] = test: Compound was evaluated for the growth inhibition of TsH1 cells in an enriched eagles minimal essential medium, medium lacking aspartic acid at a concentration of 1.0 mg/mL (4.34 mM); Heavy growth; format: functional, cell-based; details: Cricetulus griseus
TsH1 [33] = test: Compound was evaluated for the growth inhibition of TsH1 cells in an enriched eagles minimal essential medium, cmedium lacking aspartic acid at a concentration of 0.04 mg/mL (0.17 mM); Heavy growth; format: functional, cell-based; details: Cricetulus griseus

NC(CNC(=O)CBr)C(=O)O (centres undefined)
inhibition [1]: 93% | Growth inhibition (TsH1 [2]): Medium Growth | Growth inhibition (TsH1 [3]): Heavy Growth | Growth inhibition (TsH1 [4]): Not toxic | Growth inhibition (TsH1 [5]): Heavy Growth | Growth inhibition (TsH1 [6]): Heavy Growth | Growth inhibition (TsH1 [7]): Not toxic | Growth inhibition (TsH1 [8]): Heavy Growth | Growth inhibition (TsH1 [9]): Light growth | Growth inhibition (TsH1 [10]): Heavy Growth | Growth inhibition (TsH1 [11]): Not toxic | Growth inhibition (TsH1 [12]): Not toxic | Growth inhibition (TsH1 [13]): Heavy Growth | Growth inhibition (TsH1 [14]): Light growth | Growth inhibition (TsH1 [15]): Not toxic | Growth inhibition (TsH1 [16]): Heavy Growth | Growth inhibition (TsH1 [17]): Not toxic

CCOC(=O)/C=C/C(=O)NCC(N)C(=O)O (centres undefined)
inhibition [1]: 37.4% | Growth inhibition (TsH1 [18]): Heavy Growth | Growth inhibition (TsH1 [19]): Heavy Growth | Growth inhibition (TsH1 [20]): Heavy Growth | Growth inhibition (TsH1 [21]): Heavy Growth | Growth inhibition (TsH1 [22]): Heavy Growth | Growth inhibition (TsH1 [23]): Heavy Growth | Growth inhibition (TsH1 [24]): Heavy Growth | Growth inhibition (TsH1 [25]): Heavy Growth | Growth inhibition (TsH1 [26]): Heavy Growth | Growth inhibition (TsH1 [27]): Heavy Growth | Growth inhibition (TsH1 [28]): Heavy Growth | Growth inhibition (TsH1 [29]): Heavy Growth | Growth inhibition (TsH1 [30]): Heavy Growth | Growth inhibition (TsH1 [31]): Heavy Growth | Growth inhibition (TsH1 [32]): Heavy Growth | Growth inhibition (TsH1 [33]): Heavy Growth
